{
  "source": "patent US9040691B2",
  "about": "“Hydroxymethylaryl-substituted pyrrolotriazines as ALK1 inhibitors” (BAYER INTELLECTUAL PROPERTY GMBH, priority 2011, dated 2015)",
  "key": {"[1]": {"molecular_target": "ALK1 kinase (Homo sapiens (Human), UniProt P37023)", "sequence (P37023 22-503)": "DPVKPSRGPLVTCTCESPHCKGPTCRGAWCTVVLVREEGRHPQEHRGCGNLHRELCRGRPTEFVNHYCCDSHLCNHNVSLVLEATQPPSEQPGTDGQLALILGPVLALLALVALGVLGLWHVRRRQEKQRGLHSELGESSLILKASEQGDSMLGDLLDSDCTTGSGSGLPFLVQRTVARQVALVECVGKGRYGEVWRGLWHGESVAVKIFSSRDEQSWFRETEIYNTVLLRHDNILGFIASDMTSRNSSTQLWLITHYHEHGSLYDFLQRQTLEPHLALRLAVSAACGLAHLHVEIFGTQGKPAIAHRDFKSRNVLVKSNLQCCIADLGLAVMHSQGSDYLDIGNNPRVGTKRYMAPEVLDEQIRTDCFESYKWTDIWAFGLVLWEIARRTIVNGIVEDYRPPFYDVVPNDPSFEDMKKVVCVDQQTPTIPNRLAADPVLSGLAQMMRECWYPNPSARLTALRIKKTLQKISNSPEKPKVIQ", "assay": "ALK1 kinase assay (ProQinase protocol)", "type": "biochemical", "conditions": "ProQinase radiometric assay, casein, γ-33P-ATP", "experimental": "B-1b. ALK1 Kinase Assay (ProQinase Protocol)\nALK1 (Invitrogen, Carlsbad, Calif., USA) kinase activity was measured at ProQinase GmbH (Freiburg, Germany) in a radiometric assay using γ-^33P-ATP and casein (Sigma, St. Louis, Mo., USA) as substrate in 96-well PerkinElmer FlashPlates™ (Boston, Mass., USA). The compounds were tested at 10 concentrations in the range of 1×10^−4 M to 3×10^−9 M in a total volume of 50 μl with a final DMSO concentration of 1% each. The assay components were mixed in the order: • 20 μl assay buffer (70 mM HEPES-NaOH, pH 7.5, 3 mM MgCl2, 3 mM MnCl2, 2 μM sodium orthovanadate, 1.2 mM DTT); • 5 μl γ-^33P-ATP (1.0 μM in water, approx. 6×10^5 cpm per well); • 5 μl test compound solution (in 10% DMSO); • […] (200 μg/ml, 1.0 μg/50 μl final concentration)/enzyme (4 μg/ml, 20 ng/50 μl=5.5 nM final concentration) solution (1:1 mixture).\nThe reaction mixtures were incubated at 30° C. for 60 minutes and stopped by adding 50 μl 2% (v/v) phosphoric acid. The plates were aspirated and washed twice with 200 μl 0.9% (w/v) sodium chloride. Incorporation of ^33Pi was determined with a microplate scintillation counter (Microbeta, Wallac). All assays were performed using a BecicmanCoulter/SAGIAN™ Core System.\nMedian values obtained from unspecific substrate binding of labelled. ATP were set as background level, while median values measured in the absence of any inhibitor were considered to reflect full activity of ALK1 kinase. The background activity (ba) was subtracted from the full activity (fa) value as well as from the values obtained from the test compound containing samples (test compound activity, tea). The residual activity in the latter was calculated as follows: residual activity (%)=100×[(tca−ba)/(fa−ba)]\nThe residual activities for each concentration and the compound IC50 values were calculated using Quattro Workflow V3.1.0 (Quattro Research GmbH, Munich, Germany). The fitting model for the IC50 determinations was “Sigmoidal response (variable slope)” with parameters “top” fixed at 100% and “bottom” at 0%. The fitting method used was a least-squares fit."}, "[2]": {"test_system": "hSmad7 mRNA in BMP9-stimulated HUVEC", "assay": "Smad7 target gene induction: HUVEC cell assay and TaqMan expression analysis", "type": "cell-based, human", "conditions": "Homo sapiens, 3 h, 1 ng/ml BMP9 for 3 h, Smad7 mRNA by TaqMan", "experimental": "B-2b. Smad7 Target Gene Induction: HUVEC Cell Assay and TaqMan Expression Analysis\nThe in vitro potency of ALK1 inhibitors was tested in a cell-based assay. Bone morphogenetic protein 9 (BMP9) induces Smad7 mRNA expression in human vascular endothelial cells (HUVEC) via activation of ALK1.\n1.5×10^4 passage 2 HUVECs (Lonza, Basel, Switzerland) per well were seeded in a 96-well plate in EBM-2 medium containing EGM-2 additives and growth factors (Lonza, CC-3156 and CC-4176). After 4 h, the medium was changed to EBM-2 with 0.2% fetal calf serum (FCS) and the cells were starved for 20 h in a humidified incubator at 37° C., 5% CO2. Test compounds were added at 11 different concentrations between 0 and 10 000 nM one hour prior to stimulation of the cells for 3 h with recombinant human BMP9 protein at 1 ng/ml (dissolved in 4 mM hydrochloric acid, 0.1% BSA at 10 μg/ml; R&D Systems, Minneapolis, Minn., USA, 3209BP). Medium was removed, and the cells were lysed in 100 μl RLT buffer (Qiagen, Hilden, Germany). RNA was isolated using the Qiagen RNeasy 96 Kit (order-No. 74182) according to manufacturer's instructions and eluted from the columns with 65 μl RNAse-free water. Reverse transcription for quantitative RT-PCR was carried out with the Omniscript Kit (Qiagen, 205113) in RNAse-free 96-well round-bottom plates. Per well, 6.8 μl of a reaction master mix containing 2 μl 10×RT-buffer, 2 μl dNTPs (5 mM each), 1.6 μl random primer N6 (125 μM), 0.25 μl Rnase Out (40 U/μl) and 1 μl Omniscript Reverse Transcriptase were added. After addition of 13.2 μl of the RNA/water mixture, plate contents were mixed, incubated for 1 h at 37° C. and the total volume adjusted to 100 μl in each well by addition of 80 μl RNAse-free water.\nThe quantification of human Smad7 mRNA was carried out on a TaqMan using the Eurogentec qPCR Mastermix Plus (RT-QP2X-03-075+; Cologne, Germany) and employing human L32 as housekeeping reference mRNA. Per qPCR reaction, 2.8 μl primer mix, 10 μl master mix, 2.2 μl water and 5 μl cDNA were added. Thermal cycling parameters were 2 min at 50° C., followed by 10 min at 95° C., followed by 40 cycles of melting at 95° C. for 15 sec and annealing/extending at 60° C. for 1 min.\nSmad7 mRNA levels induced by 1 ng/ml BMP9 without the addition of any inhibitor were set at 100% induction, and % inhibition was calculated for each test compound with this value. For each test compound, every value was determined in quadruplicate. The IC50 values were determined using Microsoft Excel. The fitting method used was a weighted, unconstrained ML-fit."}},
  "data": [
    {"smiles": "CCc1cc(-c2cc(C(O)C3CC3)n3ncnc(N)c23)cc(F)c1CO", "note": "(racemic) [Example 39, rac-{4-Amino-5-[3-ethyl-5-fluoro-4-(hydroxymethyl)phenyl]pyrrolo[2,1-f][1,2,4]triazin-7-yl}-(cyclopropyl)methanol]", "values": [
      {"measurement": "IC50", "setting": "[1]", "value": 5.7, "unit": "nM"},
      {"measurement": "IC50", "setting": "[2]", "value": 500, "unit": "nM"}
    ]}
  ]
}
